Columns and labels:
Format in all cases: functional
OVCAR-3 [1] = assay: Growth inhibition of human OVCAR3 cells by sulforhodamine B assay
MCF7 = assay: Growth inhibition of human MCF7 cells by sulforhodamine B assay
SF-268 = assay: Growth inhibition of human SF268 cells assessed as cell growth at 10^-8 M by sulforhodamine B assay; settings: read-out: Activity
TK-10 [2] = assay: Growth inhibition of human TK10 cells by sulforhodamine B assay
OVCAR-5 = assay: Growth inhibition of human OVCAR5 cells by sulforhodamine B assay
MDA-MB-435 [3] = assay: Growth inhibition of human MDA-MB-435 cells assessed as cell growth at 10^-8 M by sulforhodamine B assay; settings: read-out: Activity
OVCAR-3 [4] = assay: Growth inhibition of human OVCAR3 cells assessed as cell growth at 10^-7 M by sulforhodamine B assay; settings: read-out: Activity
786-0 = assay: Growth inhibition of human 786-0 cells assessed as cell growth at 10^-6 M by sulforhodamine B assay; settings: read-out: Activity
TK-10 [5] = assay: Growth inhibition of human TK10 cells assessed as cell growth at 10^-7 M by sulforhodamine B assay; settings: read-out: Activity
OVCAR-4 = assay: Growth inhibition of human OVCAR4 cells assessed as cell growth at 10^-7 M by sulforhodamine B assay; settings: read-out: Activity
LOX IMVI = assay: Growth inhibition of human LOXIMVI cells assessed as cell growth at 10^-7 M by sulforhodamine B assay; settings: read-out: Activity
KM12 [6] = assay: Growth inhibition of human KM12 cells assessed as cell growth at 10^-4 M by sulforhodamine B assay; settings: read-out: Activity
HT-29 [7] = assay: Growth inhibition of human HT-29 cells assessed as cell growth at 10^-4 M by sulforhodamine B assay; settings: read-out: Activity
A549 = assay: Growth inhibition of human A549/ATCC cells assessed as cell growth at 10^-4 M by sulforhodamine B assay; settings: read-out: Activity
HT-29 [8] = assay: Growth inhibition of human HT-29 cells assessed as cell growth at 10^-8 M by sulforhodamine B assay; settings: read-out: Activity
BT-549 [9] = assay: Growth inhibition of human BT549 cells by sulforhodamine B assay
SK-OV-3 = assay: Growth inhibition of human SKOV3 cells assessed as cell growth at 10^-8 M by sulforhodamine B assay; settings: read-out: Activity
ACHN = assay: Growth inhibition of human ACHN cells assessed as cell growth at 10^-6 M by sulforhodamine B assay; settings: read-out: Activity
A498 = assay: Growth inhibition of human A498 cells assessed as cell growth at 10^-4 M by sulforhodamine B assay; settings: read-out: Activity
SNB-75 = assay: Growth inhibition of human SNB75 cells by sulforhodamine B assay
UACC-257 = assay: Growth inhibition of human UACC257 cells assessed as cell growth at 10^-7 M by sulforhodamine B assay; settings: read-out: Activity
[10] = Growth inhibition of human Hs 578T cells by sulforhodamine B assay
U-251 = assay: Growth inhibition of human U251 cells by sulforhodamine B assay
NCI-H522 = assay: Growth inhibition of human NCI-H522 cells assessed as cell growth at 10^-7 M by sulforhodamine B assay; settings: read-out: Activity
NCI-H322M = assay: Growth inhibition of human NCI-H322M cells assessed as cell growth at 10^-6 M by sulforhodamine B assay; settings: read-out: Activity
MDA-MB-435 [11] = assay: Growth inhibition of human MDA-MB-435 cells assessed as cell growth at 10^-7 M by sulforhodamine B assay; settings: read-out: Activity
BT-549 [12] = assay: Growth inhibition of human BT549 cells assessed as cell growth at 10^-4 M by sulforhodamine B assay; settings: read-out: Activity
[13] = Growth inhibition of human HCC2998 cells assessed as cell growth at 10^-7 M by sulforhodamine B assay; settings: HCC 2998, read-out: Activity
DU-145 = assay: Growth inhibition of human DU145 cells assessed as cell growth at 10^-8 M by sulforhodamine B assay; settings: read-out: Activity
HCT-116 [14] = assay: Growth inhibition of human HCT116 cells assessed as cell growth at 10^-6 M by sulforhodamine B assay; settings: read-out: Activity
Malme-3M = assay: Growth inhibition of human MALME-3M cells assessed as cell growth at 10^-4 M by sulforhodamine B assay; settings: read-out: Activity
HCT-116 [15] = assay: Growth inhibition of human HCT116 cells assessed as cell growth at 10^-8 M by sulforhodamine B assay; settings: read-out: Activity
CCRF-CEM = assay: Growth inhibition of human CCRF-CEM cells assessed as cell growth at 10^-4 M by sulforhodamine B assay; settings: read-out: Activity
K562 = assay: Growth inhibition of human K562 cells assessed as cell growth at 10^-8 M by sulforhodamine B assay; settings: read-out: Activity
KM12 [16] = assay: Growth inhibition of human KM12 cells assessed as cell growth at 10^-8 M by sulforhodamine B assay; settings: read-out: Activity
UO-31 = assay: Growth inhibition of human UO31 cells assessed as cell growth at 10^-7 M by sulforhodamine B assay; settings: read-out: Activity
SK-MEL-5 = assay: Growth inhibition of human SK-MEL-5 cells assessed as cell growth at 10^-7 M by sulforhodamine B assay; settings: read-out: Activity
RXF 393 = assay: Growth inhibition of human RXF393 cells assessed as cell growth at 10^-4 M by sulforhodamine B assay; settings: read-out: Activity
RPMI-8226 = assay: Growth inhibition of human RPMI8226 cells by sulforhodamine B assay
[17] = read-out: LC50 (the source's name)
[18] = read-out: pLC50 (the source's name) (converted)

Q: What does the source list for CC(C)=CC(=O)O[C@@H]1CC(C)(C)C[C@H]2C3=CC[C@@H]4[C@@]5(C)CC[C@H](O)C(C)(C)[C@@H]5CC[C@@]4(C)[C@]3(C)CC[C@@]12C(=O)O [Reduced Lantadene B]?
A: GI50 (OVCAR-3 [1]; read-out: GI50): 7.04 µM; CC50 (OVCAR-3 [1]; [17]): 54.7 µM; TGI (OVCAR-3 [1]; read-out: TGI): 22.1 µM; GI50 (OVCAR-3 [1]; read-out: pGI50 (converted)): 7.08 µM; CC50 (OVCAR-3 [1]; [18]): 55 µM; TGI (OVCAR-3 [1]; read-out: pTGI (converted)): 21.9 µM; GI50 (MCF7; read-out: GI50): 6.18 µM; CC50 (MCF7; [17]): > 100 µM; TGI (MCF7; read-out: TGI): 30.3 µM; GI50 (MCF7; read-out: pGI50 (converted)): 6.17 µM; CC50 (MCF7; [18]): > 100 µM; TGI (MCF7; read-out: pTGI (converted)): 30.2 µM; growth at 0.01 µM (SF-268): 93%; GI50 (TK-10 [2]; read-out: GI50): 10.7 µM; CC50 (TK-10 [2]; [17]): 71.6 µM; TGI (TK-10 [2]; read-out: TGI): 27.7 µM; GI50 (TK-10 [2]; read-out: pGI50 (converted)): 10.7 µM; CC50 (TK-10 [2]; [18]): 70.8 µM; TGI (TK-10 [2]; read-out: pTGI (converted)): 27.5 µM; GI50 (OVCAR-5; read-out: GI50): 15.9 µM; CC50 (OVCAR-5; [17]): 98.9 µM; TGI (OVCAR-5; read-out: TGI): 39.7 µM; GI50 (OVCAR-5; read-out: pGI50 (converted)): 15.8 µM; CC50 (OVCAR-5; [18]): 100 µM; TGI (OVCAR-5; read-out: pTGI (converted)): 39.8 µM; growth at 0.01 µM (MDA-MB-435 [3]): 100%; growth at 0.1 µM (OVCAR-3 [4]): 105%; growth at 1 µM (786-0): 93%; growth at 0.1 µM (TK-10 [5]): 93%; growth at 0.1 µM (OVCAR-4): 96%; growth at 0.1 µM (LOX IMVI): 93%; growth at 100 µM (KM12 [6]): -47%; growth at 100 µM (HT-29 [7]): -36%; growth at 100 µM (A549): -56%; growth at 0.01 µM (HT-29 [8]): 91%; GI50 (BT-549 [9]; read-out: GI50): 6.61 µM; CC50 (BT-549 [9]; [17]): 72.1 µM; TGI (BT-549 [9]; read-out: TGI): 24.2 µM; GI50 (BT-549 [9]; read-out: pGI50 (converted)): 6.61 µM; CC50 (BT-549 [9]; [18]): 72.4 µM; TGI (BT-549 [9]; read-out: pTGI (converted)): 24 µM; growth at 0.01 µM (SK-OV-3): 102%; growth at 1 µM (ACHN): 64%; growth at 100 µM (A498): -90%; GI50 (SNB-75; read-out: GI50): 12.7 µM; CC50 (SNB-75; [17]): > 100 µM; TGI (SNB-75; read-out: TGI): 41.2 µM; GI50 (SNB-75; read-out: pGI50 (converted)): 12.9 µM; CC50 (SNB-75; [18]): > 100 µM; TGI (SNB-75; read-out: pTGI (converted)): 40.7 µM; growth at 0.1 µM (UACC-257): 93%; GI50 ([10]; read-out: GI50): 3.04 µM; CC50 [10, 17]: > 100 µM; TGI ([10]; read-out: TGI): 12.3 µM; GI50 ([10]; read-out: pGI50 (converted)): 3.02 µM; CC50 [10, 18]: > 100 µM; TGI ([10]; read-out: pTGI (converted)): 12.3 µM; GI50 (U-251; read-out: GI50): 2.62 µM; CC50 (U-251; [17]): 71.6 µM; TGI (U-251; read-out: TGI): 16.7 µM; GI50 (U-251; read-out: pGI50 (converted)): 2.63 µM; CC50 (U-251; [18]): 70.8 µM; TGI (U-251; read-out: pTGI (converted)): 16.6 µM; growth at 0.1 µM (NCI-H522): 102%; growth at 1 µM (NCI-H322M): 94%; growth at 0.1 µM (MDA-MB-435 [11]): 97%; growth at 100 µM (BT-549 [12]): -65%; growth at 0.1 µM [13]: 99%; growth at 0.01 µM (DU-145): 101%; growth at 1 µM (HCT-116 [14]): 72%; growth at 100 µM (Malme-3M): -46%; growth at 0.01 µM (HCT-116 [15]): 99%; growth at 100 µM (CCRF-CEM): -16%; growth at 0.01 µM (K562): 114%; growth at 0.01 µM (KM12 [16]): 100%; growth at 0.1 µM (UO-31): 95%; growth at 0.1 µM (SK-MEL-5): 91%; growth at 100 µM (RXF 393): -81%; GI50 (RPMI-8226; read-out: GI50): 2.43 µM; CC50 (RPMI-8226; [17]): > 100 µM; TGI (RPMI-8226; read-out: TGI): 38.3 µM; GI50 (RPMI-8226; read-out: pGI50 (converted)): 2.45 µM; CC50 (RPMI-8226; [18]): > 100 µM; TGI (RPMI-8226; read-out: pTGI (converted)): 38 µM

— ChEMBL document CHEMBL2413072, “Synthesis and in vitro anticancer studies of novel C-2 arylidene congeners of lantadenes” (2013)
